The text below walks through data of PubChem BioAssay AID588548 (Broad Institute, 2011).

Bounds are passed on as bounds.

Chain of Scavenger receptor class B member 1 (Mus musculus) (Q61009 whole entry, looked up): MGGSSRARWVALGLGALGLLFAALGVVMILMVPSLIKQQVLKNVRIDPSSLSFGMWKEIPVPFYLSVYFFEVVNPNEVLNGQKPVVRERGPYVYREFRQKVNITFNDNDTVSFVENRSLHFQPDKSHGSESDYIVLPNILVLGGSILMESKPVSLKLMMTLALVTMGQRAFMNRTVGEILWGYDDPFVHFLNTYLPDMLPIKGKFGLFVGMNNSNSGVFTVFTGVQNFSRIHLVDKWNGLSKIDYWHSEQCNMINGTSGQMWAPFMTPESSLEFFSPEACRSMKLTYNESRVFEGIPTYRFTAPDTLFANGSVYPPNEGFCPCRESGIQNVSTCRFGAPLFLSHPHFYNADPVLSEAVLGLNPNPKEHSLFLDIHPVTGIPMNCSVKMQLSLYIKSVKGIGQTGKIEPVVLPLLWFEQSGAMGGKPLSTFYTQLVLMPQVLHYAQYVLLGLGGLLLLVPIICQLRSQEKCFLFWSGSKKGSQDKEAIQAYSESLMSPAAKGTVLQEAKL

This assay addresses Scavenger receptor class B member 1 (Mus musculus) (UniProt Q61009). Description: inhibition of HDL lipid transfer via mSR-BI – ldlA[mSR-BI] CHO cells, powder samples, set 4, dose response (AID 588548). Conditions: DiI-HDL uptake fluorescence, 3 h.
On to `COc1ccc(-c2nnn(CC(=O)N(CC(=O)NC3CCCC3)C3CCCCC3)n2)cc1OC`, for which the AC50 was under 15 nM.

Consider `CCC(=O)Nc1ccc(-c2csc(NC(=O)c3cccc(OC)c3)n2)cc1`, for which the AC50 was 99.3 nM.

Take `COc1cc(OC)cc(C(=O)Nc2nc(-c3ccc4c(c3)CCN4C(=O)OC(C)(C)C)cs2)c1`: the AC50 was under 15 nM.

`O=C(CN(C(=O)Cn1nnc(-c2ccc3c(c2)OC(F)(F)O3)n1)C1CCCCC1)NC1CCCC1`: the AC50 was 26 nM.

For `O=C(Nc1nc(-c2ccc3c(c2)CCN3)cs1)c1ccco1`, the AC50 is under 15 nM.

Consider `COc1cc(OC)cc(C(=O)Nc2nc(-c3ccc4c(c3)CCN4C(C)=O)cs2)c1`, for which the AC50 is 24.9 nM.

For the compound `CC(C)(C)OC(=O)N1CCc2cc(-c3noc(NC(=O)c4ccco4)n3)ccc21`, the AC50 is 14600 nM.

For the compound `COc1cc(OC)cc(C(=O)Nc2nc(-c3ccc4c(c3)CCN4C(=O)CN(C)C)cs2)c1`, the AC50 was under 15 nM.

In the case of `O=C(CN(C(=O)Cn1nnc(-c2ccc(Cl)c(Cl)c2)n1)C1CCCCC1)NC1CCCC1`, the AC50 is 302 nM.

In the case of `CCNC(=O)N1CCc2cc(-c3csc(NC(=O)c4cc(OC)cc(OC)c4)n3)ccc21`, the half-maximal activity concentration (AC50) was under 15 nM.

`CCCCCCC1CCC/C1=N\NC(N)=S` (configuration not stated): the AC50 is under 15 nM.

In the case of `O=C(CN(C(=O)Cn1nnc(-c2ccc3c(c2)OCO3)n1)C1CCCCC1)NC1CCCC1`, the AC50 is under 15 nM.

Consider `CC(C(=O)NC1CCCC1)N(C(=O)Cn1nnc(-c2ccc3c(c2)OCO3)n1)C1CCOCC1` (configuration not stated), for which the AC50 is 3180 nM.

On to `CCC(=O)N1CCc2cc(-c3csc(NC(=O)c4cc5cccnc5o4)n3)ccc21`, for which the AC50 is 45.3 nM.

Turning to `CCC(=O)N1CCc2cc(-c3csc(NC(=O)c4cc(OC)c(OC)c(OC)c4)n3)ccc21`, the AC50 was under 15 nM.

Regarding `CCC(=O)Nc1ccc(-c2csc(NC(=O)c3ccco3)n2)cc1`, the AC50 was 1920 nM.

In the case of `CC(C(=O)NC1CCCC1)N(C(=O)Cn1nnc(-c2ccc3c(c2)OCO3)n1)C1CCCCC1` (configuration not stated), the AC50 is under 15 nM.

On to `CCC(=O)N1CCc2cc(-c3csc(NC(=O)c4cc(OC)cc(OC)c4)n3)ccc21`, for which the AC50 was 29.5 nM.

On to `COc1ccc(-c2cc(CC(=O)N(C3CCCCC3)C(C)C(=O)NC3CCCC3)no2)cc1OC` (configuration not stated), for which the AC50 is 28.5 nM.

On to `CCC(=O)N1CCc2cc(-c3csc(NC(=O)c4ccco4)n3)ccc21`, for which the AC50 is 28.6 nM.

As for `CCC(=O)N1CCc2cc(-c3csc(NC(=O)c4cccc(OC(F)(F)F)c4)n3)ccc21`, the AC50 is 18.5 nM.

As for `COCC(=O)N1CCc2cc(-c3csc(NC(=O)c4cc(OC)cc(OC)c4)n3)ccc21`, the AC50 was under 15 nM.

As for `COC(=O)N1CCc2cc(-c3csc(NC(=O)c4cc(OC)cc(OC)c4)n3)ccc21`, the AC50 was 72 nM.

As for `CC(C(=O)NC1CCCC1)N(C(=O)Cn1nnc(-c2ccc(Cl)c(Cl)c2)n1)C1CCCCC1` (configuration not stated), the AC50 is 250 nM.

As for `CC(C(=O)NC1CCCC1)N(C(=O)Cn1nnc(-c2ccc3c(c2)OC(F)(F)O3)n1)C1CCCCC1` (configuration not stated), the AC50 was 63.5 nM.

With `COc1cc(OC)cc(C(=O)Nc2nc(-c3ccc4[nH]ccc4c3)cs2)c1`, the half-maximal activity concentration (AC50) is 50.5 nM.

On to `CCC(=O)N1CCc2cc(-c3csc(N(C)C(=O)c4cc(OC)cc(OC)c4)n3)ccc21`, for which the AC50 is 50 nM.

`CCCN1CCc2cc(-c3csc(NC(=O)c4cc(OC)cc(OC)c4)n3)ccc21`: the AC50 was 51.7 nM.

In the case of `CCC(=O)N1CCc2cc(-c3csc(/N=C(/OC)c4cc(OC)cc(OC)c4)n3)ccc21`, the AC50 is 1020 nM.

`COc1cc(OC)cc(C(=O)Nc2nc(-c3ccc4c(c3)CCN4)cs2)c1`: the AC50 was 103 nM.

Consider `CCC(=O)Nc1ccc(-c2csc(N)n2)cc1`, for which the AC50 is 8840 nM.

With `COc1ccc(-c2nc(CC(=O)N(C3CCCCC3)C(C)C(=O)NC3CCCC3)cs2)cc1OC` (configuration not stated), the AC50 was 5260 nM.
